Organism: Rattus norvegicus
Assay: Open TG-GATES - Regimen: Daily Repeat
Format: toxicity, organism-based, Sprague-Dawley
Parameters: regimen Daily Repeat, gender Male, age 6 weeks
Details: in vivo, po, route gavage; for APTT / Bas / Eos / Fbg / Hb / Ht / Lym / MCH / MCHC / MCV / Mono / Neu / PT / Plat / RBC / Ret / WBC: tissue Blood; for KIDNEY_L / KIDNEY_R / KIDNEY_TOTAL: tissue Kidney; for LIVER: tissue Liver; for A/G / ALP / ALT / AST / BUN / CRE / Ca / Cl / DBIL / GLC / IP / K / LDH / Na / PL / RALB / TBIL / TC / TG / TP / gamma-GTP: tissue Plasma
[1] = 0 mg/kg, 72 h, dose level Control, time 3 day
[2] = 0 mg/kg, […], dose level Control, time 7 day
[3] = 0 mg/kg, […], dose level Control, time 14 day
[4] = 0 mg/kg, […], dose level Control, time 28 day
[5] = 100 mg/kg, 72 h, dose level Low, time 3 day
[6] = 100 mg/kg, […], dose level Low, time 7 day
[7] = 100 mg/kg, […], dose level Low, time 14 day
[8] = 100 mg/kg, […], dose level Low, time 28 day

## O=C(N[C@H](CO)[C@H](O)c1ccc([N+](=O)[O-])cc1)C(Cl)Cl [CHLORAMPHENICOL]
[1]
  TERMINAL_BW: 250.4 g
  APTT: 17.1 s
  Bas: 0%
  Eos: 1.2%
  Fbg: 270.4 mg/dL
  Hb: 13.1 g/dL
  Ht: 40.4%
  Lym: 71.6%
  MCH: 21.5 pg
  MCHC: 32.4%
  MCV: 66.2 fL
  Mono: 3%
  Neu: 23.8%
  PT: 14.4 s
  Plat: 109.8 x10_4/uL
  RBC: 611.2 x10_4/ul
  Ret: 7%
  WBC: 78.3 x10_2/uL
  KIDNEY_L: 1.1 g
  KIDNEY_R: 1.1 g
  KIDNEY_TOTAL: 2.2 g
  LIVER: 12.4 g
  A/G: 0.9
  ALP: 1702 IU/L
  ALT: 44 IU/L
  AST: 66.4 IU/L
  BUN: 15 mg/dL
  CRE: 0.2 mg/dL
  Ca: 11.3 mg/dL
  Cl: 105 meq/L
  DBIL: 0.022 mg/dL
  GLC: 186.8 mg/dL
  IP: 7.1 mg/dL
  K: 4.1 meq/L
  LDH: 80.8 IU/L
  Na: 140.4 meq/L
  PL: 154 mg/dL
  RALB: 2.7 g/dL
  TBIL: 0.048 mg/dL
  TC: 78.4 mg/dL
  TG: 127.6 mg/dL
  TP: 5.7 g/dL
  gamma-GTP: 1.2 IU/L
[2]
  TERMINAL_BW: 289.7 g
  APTT: 17.6 s
  Bas: 0%
  Eos: 0.8%
  Fbg: 274.8 mg/dL
  Hb: 13.7 g/dL
  Ht: 42%
  Lym: 77.8%
  MCH: 21.4 pg
  MCHC: 32.6%
  MCV: 65.7 fL
  Mono: 2.6%
  Neu: 18.2%
  PT: 14.1 s
  Plat: 131.7 x10_4/uL
  RBC: 640.6 x10_4/ul
  Ret: 5.6%
  WBC: 92.1 x10_2/uL
  KIDNEY_L: 1.2 g
  KIDNEY_R: 1.2 g
  KIDNEY_TOTAL: 2.4 g
  LIVER: 13.8 g
  A/G: 0.9
  ALP: 1839.2 IU/L
  ALT: 44.4 IU/L
  AST: 69.4 IU/L
  BUN: 15.4 mg/dL
  CRE: 0.2 mg/dL
  Ca: 11.3 mg/dL
  Cl: 106.4 meq/L
  DBIL: 0.024 mg/dL
  GLC: 188.8 mg/dL
  IP: 7.5 mg/dL
  K: 3.9 meq/L
  LDH: 64.2 IU/L
  Na: 143.2 meq/L
  PL: 162.2 mg/dL
  RALB: 2.7 g/dL
  TBIL: 0.052 mg/dL
  TC: 79 mg/dL
  TG: 140.4 mg/dL
  TP: 5.9 g/dL
  gamma-GTP: 1.2 IU/L
[3]
  TERMINAL_BW: 334.8 g
  APTT: 16.9 s
  Bas: 0%
  Eos: 1%
  Fbg: 272 mg/dL
  Hb: 14.6 g/dL
  Ht: 44.5%
  Lym: 78.4%
  MCH: 20.3 pg
  MCHC: 32.6%
  MCV: 62.3 fL
  Mono: 2.2%
  Neu: 18%
  PT: 14.8 s
  Plat: 122.4 x10_4/uL
  RBC: 715.4 x10_4/ul
  Ret: 3.8%
  WBC: 90.5 x10_2/uL
  KIDNEY_L: 1.3 g
  KIDNEY_R: 1.3 g
  KIDNEY_TOTAL: 2.6 g
  LIVER: 13.9 g
  A/G: 0.8
  ALP: 1466.2 IU/L
  ALT: 37.2 IU/L
  AST: 63.6 IU/L
  BUN: 17.2 mg/dL
  CRE: 0.2 mg/dL
  Ca: 11.1 mg/dL
  Cl: 107.2 meq/L
  DBIL: 0.024 mg/dL
  GLC: 187.6 mg/dL
  IP: 6.5 mg/dL
  K: 4.5 meq/L
  LDH: 59 IU/L
  Na: 143 meq/L
  PL: 151.6 mg/dL
  RALB: 2.7 g/dL
  TBIL: 0.05 mg/dL
  TC: 63.6 mg/dL
  TG: 189.6 mg/dL
  TP: 6 g/dL
  gamma-GTP: 1 IU/L
[4]
  TERMINAL_BW: 425.6 g
  APTT: 18.3 s
  Bas: 0%
  Eos: 1.6%
  Fbg: 259 mg/dL
  Hb: 15.5 g/dL
  Ht: 45.1%
  Lym: 77.4%
  MCH: 20 pg
  MCHC: 34.3%
  MCV: 58.3 fL
  Mono: 1.8%
  Neu: 18.4%
  PT: 14.8 s
  Plat: 93.9 x10_4/uL
  RBC: 773 x10_4/ul
  Ret: 2.2%
  WBC: 79.4 x10_2/uL
  KIDNEY_L: 1.4 g
  KIDNEY_R: 1.4 g
  KIDNEY_TOTAL: 2.8 g
  LIVER: 17 g
  A/G: 0.8
  ALP: 1089.6 IU/L
  ALT: 36.4 IU/L
  AST: 60 IU/L
  BUN: 17 mg/dL
  CRE: 0.2 mg/dL
  Ca: 11 mg/dL
  Cl: 104.4 meq/L
  DBIL: 0.018 mg/dL
  GLC: 193.4 mg/dL
  IP: 6.2 mg/dL
  K: 3.7 meq/L
  LDH: 47.2 IU/L
  Na: 143.8 meq/L
  PL: 141.4 mg/dL
  RALB: 2.7 g/dL
  TBIL: 0.054 mg/dL
  TC: 66 mg/dL
  TG: 136.6 mg/dL
  TP: 6.3 g/dL
  gamma-GTP: 1 IU/L
[5]
  TERMINAL_BW: 251 g
  APTT: 16.1 s
  Bas: 0%
  Eos: 1%
  Fbg: 273.2 mg/dL
  Hb: 13.3 g/dL
  Ht: 40.4%
  Lym: 79.4%
  MCH: 21.8 pg
  MCHC: 32.8%
  MCV: 66.6 fL
  Mono: 3.2%
  Neu: 16.2%
  PT: 14.7 s
  Plat: 116.8 x10_4/uL
  RBC: 607.2 x10_4/ul
  Ret: 5.4%
  WBC: 102.1 x10_2/uL
  KIDNEY_L: 1.1 g
  KIDNEY_R: 1 g
  KIDNEY_TOTAL: 2.1 g
  LIVER: 11.3 g
  A/G: 0.9
  ALP: 1563.4 IU/L
  ALT: 45 IU/L
  AST: 69.4 IU/L
  BUN: 15.6 mg/dL
  CRE: 0.2 mg/dL
  Ca: 11.1 mg/dL
  Cl: 104.6 meq/L
  DBIL: 0.02 mg/dL
  GLC: 178.4 mg/dL
  IP: 6.8 mg/dL
  K: 4.3 meq/L
  LDH: 95.6 IU/L
  Na: 141.2 meq/L
  PL: 146.8 mg/dL
  RALB: 2.5 g/dL
  TBIL: 0.054 mg/dL
  TC: 80 mg/dL
  TG: 97.6 mg/dL
  TP: 5.4 g/dL
  gamma-GTP: 0.8 IU/L
[6]
  TERMINAL_BW: 287.8 g
  APTT: 16.2 s
  Bas: 0%
  Eos: 0.8%
  Fbg: 308.8 mg/dL
  Hb: 14.2 g/dL
  Ht: 44.4%
  Lym: 78.2%
  MCH: 21.1 pg
  MCHC: 32.2%
  MCV: 65.7 fL
  Mono: 3%
  Neu: 17.4%
  PT: 14.4 s
  Plat: 131.5 x10_4/uL
  RBC: 675 x10_4/ul
  Ret: 6%
  WBC: 90.7 x10_2/uL
  KIDNEY_L: 1.2 g
  KIDNEY_R: 1.2 g
  KIDNEY_TOTAL: 2.4 g
  LIVER: 12.9 g
  A/G: 0.8
  ALP: 1500.2 IU/L
  ALT: 49 IU/L
  AST: 71.2 IU/L
  BUN: 13.6 mg/dL
  CRE: 0.2 mg/dL
  Ca: 11.7 mg/dL
  Cl: 106.2 meq/L
  DBIL: 0.026 mg/dL
  GLC: 189.6 mg/dL
  IP: 8.3 mg/dL
  K: 4.2 meq/L
  LDH: 65.8 IU/L
  Na: 144.2 meq/L
  PL: 156.2 mg/dL
  RALB: 2.7 g/dL
  TBIL: 0.062 mg/dL
  TC: 82.6 mg/dL
  TG: 72.4 mg/dL
  TP: 5.9 g/dL
  gamma-GTP: 1.2 IU/L
[7]
  TERMINAL_BW: 333.6 g
  APTT: 14.7 s
  Bas: 0%
  Eos: 1.4%
  Fbg: 297.8 mg/dL
  Hb: 14.1 g/dL
  Ht: 43.4%
  Lym: 78%
  MCH: 20.2 pg
  MCHC: 32.5%
  MCV: 62.1 fL
  Mono: 2.4%
  Neu: 18%
  PT: 14.5 s
  Plat: 121.6 x10_4/uL
  RBC: 698.2 x10_4/ul
  Ret: 3.8%
  WBC: 96.2 x10_2/uL
  KIDNEY_L: 1.3 g
  KIDNEY_R: 1.3 g
  KIDNEY_TOTAL: 2.6 g
  LIVER: 14.9 g
  A/G: 0.8
  ALP: 1535.2 IU/L
  ALT: 41.8 IU/L
  AST: 67.4 IU/L
  BUN: 16 mg/dL
  CRE: 0.2 mg/dL
  Ca: 11.2 mg/dL
  Cl: 105 meq/L
  DBIL: 0.022 mg/dL
  GLC: 191 mg/dL
  IP: 6.5 mg/dL
  K: 3.8 meq/L
  LDH: 54.8 IU/L
  Na: 142.8 meq/L
  PL: 157.4 mg/dL
  RALB: 2.6 g/dL
  TBIL: 0.05 mg/dL
  TC: 77.8 mg/dL
  TG: 133 mg/dL
  TP: 5.8 g/dL
  gamma-GTP: 1 IU/L
[8]
  TERMINAL_BW: 409.6 g
  APTT: 16.5 s
  Bas: 0%
  Eos: 1%
  Fbg: 278 mg/dL
  Hb: 14.9 g/dL
  Ht: 43.7%
  Lym: 81%
  MCH: 19.5 pg
  MCHC: 34.2%
  MCV: 57 fL
  Mono: 1.2%
  Neu: 15.8%
  PT: 14.8 s
  Plat: 106 x10_4/uL
  RBC: 767.4 x10_4/ul
  Ret: 2.3%
  WBC: 79.5 x10_2/uL
  KIDNEY_L: 1.6 g
  KIDNEY_R: 1.5 g
  KIDNEY_TOTAL: 3.1 g
  LIVER: 16.8 g
  A/G: 0.8
  ALP: 1164.4 IU/L
  ALT: 39.2 IU/L
  AST: 61.4 IU/L
  BUN: 16.4 mg/dL
  CRE: 0.2 mg/dL
  Ca: 10.9 mg/dL
  Cl: 104.4 meq/L
  DBIL: 0.02 mg/dL
  GLC: 171.2 mg/dL
  IP: 6.1 mg/dL
  K: 3.5 meq/L
  LDH: 44.6 IU/L
  Na: 144.2 meq/L
  PL: 152.2 mg/dL
  RALB: 2.7 g/dL
  TBIL: 0.058 mg/dL
  TC: 75.2 mg/dL
  TG: 97.6 mg/dL
  TP: 6.2 g/dL
  gamma-GTP: 1 IU/L
